Experiments:
[1] = tested on: recombinant human HDAC1-4 and HDAC6-9; test: Histone deacetylase inhibition, two-step fluorogenic assay; assay type: biochemical; details: reduced form of the compound
Procedure: TCEP, tris(2-carboxyethyl)phosphine hydrocloride used as a reducing agent.
The experiments included HDACs falling in human class I (HDACs 1, 2, 3 and 8), as well as human class II (HDACs 4, 6, 7 and 9), and the activities were determined in a two-step fluorogenic assay by the method described in (Wegener et al. Analytical biochemistry (2003) 321:202-208). All HDAC dose-response curves were bundled for each compound individually in the native/oxidized and the reduced forms. The activity of each enzyme was normalized separately. For determination of the inhibitory effect, IC50 values (in μM concentrations) were obtained through a non-linear four-parameter fit.

NCI-60 cancer cell lines [2] = test: NCI-60 single-dose assay; assay type: cell-based, human; details: single dose 10 μM
[3] = tested on: CNS cancer cell line (U251); test: NCI-60 assay, U251 cell line; assay type: cell-based, human
[4] = tested on: breast cancer cell line (BT-549); test: NCI-60 assay, BT-549 cell line; assay type: cell-based, human
NCI-60 cancer cell lines [5] = details: for number of cancer cell lines completely killed / number of cancer cell lines whose growth was totally inhibited / TGI50, median concentration for total growth inhibition / GI50 / CC50: five-dose assay; for number of cancer cell lines completely killed: at median LC50 or lower; for number of cancer cell lines whose growth was totally inhibited: at median TGI50 or lower; for TGI50, median concentration for total growth inhibition: 29 (A) / 28 (B) cell lines; for GI50: read-out: GI50, median concentration, all but three cancer cell lines (HCT-15, NCI/ADR-RES, CAKI-1); for CC50: read-out: LC50, median concentration, 17 (A) / 20 (B) cell lines completely killed

Row | SMILES | HDAC inhibition ranking (order of inhibition) [1] | inhibitory activity across the 60 cancer cell lines (NCI-60 cancer cell lines [2]) | number of cell lines inhibited at the mean growth percent or more (NCI-60 cancer cell lines [2]) | sensitivity of U251 CNS cancer cell line [3] | sensitivity of BT-549 breast cancer cell line [4] | cancer cell lines inhibited in five-dose assay (NCI-60 cancer cell lines [5]; exceptions: HCT-15 colon, NCI/ADR-RES ovarian, CAKI-1 renal) | number of cancer cell lines completely killed (NCI-60 cancer cell lines [5]) | number of cancer cell lines whose growth was totally inhibited (NCI-60 cancer cell lines [5]) | TGI50, median concentration for total growth inhibition (NCI-60 cancer cell lines [5]) | GI50 (NCI-60 cancer cell lines [5]) | CC50 (NCI-60 cancer cell lines [5]) | relative potency (all parameters) (NCI-60 cancer cell lines [5]; thailandepsin A vs thailandepsin B)
1 | CC=C1NC(=O)C(CS)NC(=O)C(C(C)C)NC(=O)CC(C=CCCS)OC(=O)C(C(C)C)NC1=O (stereo not drawn) [reduced form of FK228] | HDAC2≧HDAC3≧HDAC1>HDAC8>HDAC4≧HDAC6>HDAC9≧HDAC7 |  |  |  |  |  |  |  |  |  |  | 
2 | CC[C@H](C)[C@H]1NC(=O)[C@H]2CSSCC/C=C/[C@H](CC(=O)N[C@H](CCSC)C(=O)N2)OC(=O)C[C@@H]1O [thailandepsin A] |  | consistently inhibitory to most but not all 60 cancer cell lines | 28 cell lines | very sensitive | very sensitive | inhibitory to all but three cancer cell lines | 17 cancer cell lines | 29 cancer cell lines | ≤ 125.9 nM | ≤ 5.6 nM | ≤ 3890 nM | twice as potent as thailandepsin B
3 | CCCC[C@H]1NC(=O)C[C@H]2/C=C/CCSSC[C@@H](NC1=O)C(=O)N[C@H]([C@@H](C)CC)[C@@H](O)CC(=O)O2 [thailandepsin B] |  | consistently inhibitory to most but not all 60 cancer cell lines | 30 cell lines | very sensitive | very sensitive |  | 20 cancer cell lines | 28 cancer cell lines | ≤ 256.4 nM | ≤ 11.7 nM | ≤ 6920 nM | 

Reference: patent publication US20110060021A1 (priority 2009, published 2011)
